Reference: patent US20100247461A1, “ANTI-INFLAMMATORY COMPLEXES” (Signum Biosciences, Inc., priority 2009, published 2010)
Converted amounts (≈) assume the structure as drawn.

Tests used:
[1] = tested on: TPA-treated mouse ears (edema, ear thickness); experiment: TPA mouse ear model of inflammation - edema inhibition; assay type: in vivo; conditions: TPA-treated mouse ear
Procedure: In brief, mice were sedated and their ears were treated with 1.2 μg/20 uL TPA (i.e., tetradecanoylphorbol-13-acetate). After 5 minutes, we dosed these TPA-treated ears with a single 8 μg/20 μL dose, a 2 μg/20 μL dose, or both doses, of provided complexes. After 24 hours, the mice were sacrificed and edema was measured by taking micrometer readings of each ear. […] These values were corrected for the thickness of normal, non TPA-treated mouse ears of littermate controls.

[2] = tested on: TPA-treated mouse ears (erythema, Δa* redness); experiment: TPA mouse ear model of inflammation - erythema inhibition; assay type: in vivo; conditions: topical, 24 hours
Procedure: The protocol for measuring erythema inhibition by provided complexes was developed in-house by utilizing the CR-400 chroma meter from Konica Minolta (2). This instrument was used to measure the Δa*redness value from 6 mm biopsy punches taken 24 hours post TPA/compound treatment as described in the edema inhibition section above. […] These values were corrected for the Δa* value of non TPA-treated mouse ears of littermate controls.

[3] = tested on: MPO (myeloperoxidase), neutrophil marker; experiment: TPA mouse ear model of inflammation - MPO inhibition (dermal neutrophil infiltration); assay type: in vivo; conditions: TPA-treated mouse ear
Procedure: Briefly, we homogenized 6mm biopsy punches taken from both compound-treated ears as well as TPA-treated and non-treated control groups. We quantitated the levels of MPO by a colorimetric reaction that was measured spectrophotometrically. The percent inhibition of neutrophil infiltration by each complex was determined by comparing the average MPO levels in the presence and absence of these compounds. The calculation for percent inhibition of MPO was determined similar to that as described for calculating the percent edema inhibition, see the Edema Inhibition protocol, supra.

[4] = tested on: Propionibacterium acnes (strain ATCC 6919); experiment: Inhibition of Propionibacterium acnes growth; assay type: cell-based; conditions: Cutibacterium acnes, ATCC6919, 72 h, 72 hours, anaerobic, absorbance 600 nm, 1×10^6 CFU per mL; read-out: IC50 (inhibition of P. acnes growth)
Procedure: The assay for the inhibition of growth of Propionibacterium acnes bacteria is described elsewhere (Nakatsuji et al., J Invest Dermatol, 2009, 129: 2480-2488). In brief, the strain ATCC 6919 of P. acnes (American Type Culture Collection, Manassas, Va.) was cultured on Brucella agar (R01254, Remel, Lenexa, Kans.) supplemented with 5% (v/v) defibrinated sheep blood, vitamin K (5 mg/ml, Remel, Lenexa, Kans.), and hemin (50 mg/ml, Remel, Lenexa, Kans.), under an anaerobic condition using Gas-Pak (BD, Sparks, Md.) at 37° C. A single colony was inoculated in Reinforced Clostridium Medium (Oxford, Hampshire, England) and cultured at 37° C. under the anaerobic condition. Each of the inventive complexes—AFC-Sr, AFC-Ag and AFC-Zn as well as AFC were dissolved in 100% (v/v) DMSO. Samples of each inventive complex, AFC and a solution of benzoyl peroxide (“BPO”) were then each incubated with an inoculum of P. acnes at a concentration of 1×10^6 CFU per mL in Reinforced Clostridium Medium in a 96-well microplate (100 μL per well) under anaerobic conditions for 72 hours. Samples of each were tested at final concentrations per well of 0.25 μg/mL, 0.5 μg/mL, 1.0 μg/mL, 1.95 μg/mL, 3.9 μg/mL, 7.8 μg/mL, 15.625 μg/mL, 31.25 μg/mL, 62.5 μg/mL, 125 μg/mL, 250μg/mL, and 500 μg/mL. A control well received only 5% (v /v) of DMSO in place of a sample of an inventive complex. After 72 hours incubation under anaerobic conditions, the P. acnes cultures in the 96-well microplate were mixed well and then absorbance readings at 600 nm were taken to determine bacterial growth. […] Growth curves of P. acnes determined for BPO, AFC, AFC-Sr, AFC-Ag and AFC-Zn are depicted in FIG. 3.

[5] = tested on: MPO activity (neutrophil infiltration) in P. acnes-injected ear; experiment: P. acnes-induced mouse ear model of inflammation - MPO endpoint; assay type: in vivo; conditions: dose of 0.4 mg/20 μL
Procedure: The methods for a model of P. acnes-inflammation are described elsewhere (Nakatsuji et al., J Invest Dermatol, 2008, 128: 2451-2457).
The protocol for inducing inflammation using P. acnes bacterial challenge on the mouse ear was slightly modified from the method described previously (Natatsuji et al., 2008). Briefly, Swiss Webster (ICR, 6-8 weeks old) mouse ears were injected with living P. acnes culture intradermally. An amount of 20 μl aliquots of living P. acnes (ATCC 6919, 3×10^6 CFU) suspended in PBS was intradermally injected in the central portion of the ear. As a control, 20 μl of PBS was injected into control animals.
To assay for inhibition of dermal neutrophil infiltration by AFC complexes, a standard method was used (see Bradley et al., J Invest Dermatol, 1982,78: 206-209; Young et al., J Invest Dermatol, 1983, 80: 48-52; De Young et al, Agents Actions, 1989, 26: 335-41; and Rao et al., Inflammation, 1993, 17: 723-41). Briefly, 6mm biopsy punches taken from both compound-treated ears as well as non-treated control ears were homogenized in 400 μl of 0.5% hexadecyltrimethylammonium bromide in 50 mM potassium phosphate buffer (pH 6.0) using the Fast Prep 24 (MP Biomedicals, Solon, Ohio). Supernatants were assayed for MPO activity using a model EL 340 96-well plate reader (BioTek Instruments, Winooski, Vt.). The percent inhibition of neutrophil infiltration by each AFC complex was determined by comparing the average MPO levels in the presence and absence of these compounds. The percent inhibition of MPO was determined by taking the average MPO activity of compound-treated ears and dividing it by the average MPO activity of 12 ears that only received the P. acnes challenge and subtracting that value from 100%. These values were corrected for the MPO activity of normal, non P. acnes-treated mouse ears of littermate controls. Summary of MPO activity ranges determined from an MPO activity assay for dexamethasone (administered at a dose of 1.6 mg/20 μL), clobetasol (administered at a dose of 0.1 mg/20 μL), salicylic acid (administered at a dose of 0.4 mg/20 μL), AFC (administered at a dose of 0.4 mg/20 μL), AFC-Strontium complex (administered at a dose of 0.4 mg/20 μL) and SFC-disodium are presented in Table 4. “+” indicates a range of 0-20%, “++” indicates a range of 20-40%, and “+++” indicates >40% inhibition.

[6] = tested on: TPA-treated mouse ears (edema, ear thickness); experiment: TPA mouse ear model of inflammation - edema inhibition; assay type: in vivo; conditions: topical, 24 hours
[7] = at the dose tested, AFC oil n=1, data not shown

CC(=O)N[C@@H](CSC/C=C(\C)CC/C=C(\C)CCC=C(C)C)C(=O)O [AFC, N-acetyl-S-farnesyl-L-cysteine, reference compound]
inhibition of edema [1, 7]: 56.35% | ED50 for edema inhibition ([1]; topical, listed as AFC oil): 54.8 mM | % Erythema Inhibition in the Mouse Ear Inflammation Assay (4% concentration) [2]: ++ (“++” indicates a range of 20-40%) | inhibition of neutrophil infiltration [3, 7]: 55.90% | ED50 in the MPO assay ([3]; several concentrations, inhibitory activity curves): 651 μg/ear | % MPO Inhibition in the Mouse Ear Inflammation Assay (4% concentration) ([3]; topical, 4% concentration, 24 hours): ++ (“++” indicates a range of 40-80%) | ED50 value for inhibiting neutrophil infiltration ([3]; topical, listed as AFC oil): 38.8 mM | IC50 [4]: 12.9 µg/mL (≈ 35.1 µM) | MPO % Inhibition [5]: +++ (“+++” indicates >40% inhibition) | % Edema Inhibition in the Mouse Ear Inflammation Assay (4% concentration) [6]: +++ (“+++” indicates >50% inhibition of edema)
